Literature values, collected in US7541359B2, “N-heteroarylpiperazinyl ureas as modulators of fatty acid amide hydrolase” (Janssen Pharmaceutica N.V., priority 2005, dated 2009).

Assays:
[1] = tested on: CREAE mice; conditions: model of multiple sclerosis; cited from earlier work
[2] = tested on: rats; conditions: cited from earlier work
[3] = tested on: rats; conditions: cited from earlier work; remark: listed apart in the source
[4] = tested on: rats; conditions: cited from earlier work; remark: listed apart in the source
[5] = tested on: rats; conditions: cited from earlier work; remark: listed apart in the source
[6] = molecular target: T1, FAAH (Homo sapiens, UniProt O00519); parameters: T84 frozen pellets (contents of 1-4×15 cm culture dishes) were homogenized in 300 mL of FAAH assay buffer; endogenous in cells; host or cells: T84 cells (homogenate); conditions: cited from earlier work
T1 sequence (O00519 1-579): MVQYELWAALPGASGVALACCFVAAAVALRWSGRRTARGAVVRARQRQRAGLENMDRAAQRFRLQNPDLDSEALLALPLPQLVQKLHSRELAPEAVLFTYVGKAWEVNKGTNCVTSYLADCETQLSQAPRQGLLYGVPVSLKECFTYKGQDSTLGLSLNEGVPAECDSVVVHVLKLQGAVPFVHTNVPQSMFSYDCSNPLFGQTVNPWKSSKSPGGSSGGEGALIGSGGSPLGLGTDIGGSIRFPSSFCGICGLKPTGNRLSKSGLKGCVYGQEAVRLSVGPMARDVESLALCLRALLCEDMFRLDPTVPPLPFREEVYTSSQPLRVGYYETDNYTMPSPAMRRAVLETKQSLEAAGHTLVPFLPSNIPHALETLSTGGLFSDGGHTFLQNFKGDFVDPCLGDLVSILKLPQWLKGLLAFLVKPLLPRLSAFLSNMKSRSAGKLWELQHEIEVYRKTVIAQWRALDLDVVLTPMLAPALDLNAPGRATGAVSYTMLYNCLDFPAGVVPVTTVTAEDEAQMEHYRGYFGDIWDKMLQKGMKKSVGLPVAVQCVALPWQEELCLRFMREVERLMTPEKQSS

[7] = tested on: rats; conditions: cited from earlier work; remark: listed apart in the source
[8] = tested on: rats; conditions: rat; cited from earlier work

## CCCCCCCCCCCCCCCCS(=O)(=O)F [AM374]
[1]
  reduction of spasticity: significantly reduce spasticity

## Cc1nc(-c2ccccc2)c(-c2ccccc2)n1CCCCCCNC(=O)Oc1ccccc1F [BMS-1]
[2]
  analgesic effect in the Chung spinal nerve ligation model of neuropathic pain: analgesic effect
[3]
  analgesic effect in the Hargraves test of acute thermal nociception: analgesic effect

## O=C(CCCCCCc1ccccc1)c1ncc(-c2ccccn2)o1 [OL-135]
[4]
  analgesic efficacy/activity in the hot plate test: analgesic activity
[5]
  analgesic activity in the tail emersion test of thermal nociception: analgesic activity
[6]
  inhibition of FAAH: potent inhibitor

## NC(=O)c1cccc(-c2cccc(OC(=O)NC3CCCCC3)c2)c1 [URB-597]
[7]
  efficacy in the zero plus maze model of anxiety: efficacy
[4]
  analgesic efficacy/activity in the hot plate test: analgesic efficacy
[8]
  analgesic efficacy in the formalin test: analgesic efficacy
